Measurements as given in patent publication US9364467B2 (Salix Pharmaceuticals, Ltd, priority 2012, dated 2016).
Values after ≈ are worked out from the molar mass of the structure shown. Read-outs that look alike come from different tables or passages of the source.

Key:
[1] = test system: Enterococcus spp. strains; assay: In vitro activity (MIC) against Enterococcus spp. strains
S. haemolyticus = assay: In vitro activity (MIC) against S. haemolyticus strains; conditions: Staphylococcus haemolyticus
[2] = Enterococcus, read-out: Mode (MIC), Enterococcus spp. strains

`CO[C@H]1/C=C/O[C@@]2(C)Oc3c(C)c(O)c4c(O)c(c5c(nc6cc(C)ccn65)c4c3C2=O)NC(=O)/C(C)=C\C=C\[C@H](C)[C@H](O)[C@@H](C)[C@@H](O)[C@@H](C)[C@H](OC(C)=O)[C@@H]1C` [Rifaximin, reference compound] showed an MIC ([1]; ATCC E. faecalis 29212) of 4 µg/mL (≈ 5.09 µM), an MIC ([1]; E. faecalis 181) of 4 µg/mL (≈ 5.09 µM) and an MIC ([1]; E. faecalis 186) of 4 µg/mL (≈ 5.09 µM). The MIC ([1]; E. faecalis 187) was 4 µg/mL (≈ 5.09 µM), the MIC ([1]; E. faecalis 193) was 4 µg/mL (≈ 5.09 µM) and the MIC ([1]; E. faecalis 194) was 4 µg/mL (≈ 5.09 µM). For the same compound, the MIC ([1]; E. faecalis 200) was greater than 16 µg/mL, the MIC ([1]; E. faecalis 204) was 4 µg/mL (≈ 5.09 µM) and the MIC ([1]; E. faecalis 205) was 4 µg/mL (≈ 5.09 µM). The MIC ([1]; E. faecalis 210) was 4 µg/mL (≈ 5.09 µM), the MIC ([1]; E. faecalis 227) was greater than 16 µg/mL and the MIC ([1]; E. faecalis 228) was 4 µg/mL (≈ 5.09 µM). For the same compound, the MIC ([1]; E. faecalis 232) was 4 µg/mL (≈ 5.09 µM), the MIC ([1]; E. faecalis 235) was 16 µg/mL (≈ 20.4 µM) and the MIC ([1]; E. faecalis 237) was 4 µg/mL (≈ 5.09 µM). It also gave an MIC ([1]; E. faecalis 239) of 8 µg/mL (≈ 10.2 µM), an MIC ([1]; E. faecalis 242) greater than 16 µg/mL and an MIC ([1]; E. faecalis 243) of 16 µg/mL (≈ 20.4 µM). The MIC ([1]; E. faecalis 245) was greater than 16 µg/mL, the MIC ([1]; E. faecalis 249) was 4 µg/mL (≈ 5.09 µM) and the MIC ([1]; E. faecalis 250) was 4 µg/mL (≈ 5.09 µM). The MIC ([1]; E. faecalis 251) was 8 µg/mL (≈ 10.2 µM), the MIC ([1]; E. faecalis 255) was 4 µg/mL (≈ 5.09 µM) and the MIC ([1]; E. faecium 8) was 4 µg/mL (≈ 5.09 µM). It also gave an MIC ([1]; E. faecium 13) of 4 µg/mL (≈ 5.09 µM), an MIC ([1]; E. faecium 174) of 8 µg/mL (≈ 10.2 µM) and an MIC ([1]; E. faecium 185) greater than 16 µg/mL. It also gave an MIC ([1]; E. faecium 188) of 8 µg/mL (≈ 10.2 µM), an MIC ([1]; E. faecium 189) of 4 µg/mL (≈ 5.09 µM) and an MIC ([1]; E. faecium 190) of 16 µg/mL (≈ 20.4 µM). It also gave an MIC ([1]; E. faecium 191) greater than 16 µg/mL, an MIC ([1]; E. faecium 192) of 2 µg/mL (≈ 2.54 µM) and an MIC ([1]; E. faecium 198) of 16 µg/mL (≈ 20.4 µM). For the same compound, the MIC ([1]; E. faecium 199) was 8 µg/mL (≈ 10.2 µM), the MIC ([1]; E. faecium 201) was 16 µg/mL (≈ 20.4 µM) and the MIC ([1]; E. faecium 203) was 4 µg/mL (≈ 5.09 µM). For the same compound, the MIC ([1]; E. faecium 207) was 4 µg/mL (≈ 5.09 µM), the MIC ([1]; E. faecium 208) was 2 µg/mL (≈ 2.54 µM) and the MIC ([1]; E. faecium 209) was 16 µg/mL (≈ 20.4 µM). For the same compound, the MIC ([1]; E. faecium 212) was greater than 16 µg/mL, the MIC ([1]; E. faecium 215) was greater than 16 µg/mL and the MIC ([1]; E. faecium 217) was 8 µg/mL (≈ 10.2 µM). It also gave an MIC ([1]; E. faecium 221) of 8 µg/mL (≈ 10.2 µM), an MIC ([1]; E. faecium 222) greater than 16 µg/mL and an MIC ([1]; E. faecium 223) greater than 16 µg/mL. The MIC ([1]; E. faecium 225) was 4 µg/mL (≈ 5.09 µM), the MIC ([1]; E. faecium 229) was 2 µg/mL (≈ 2.54 µM) and the MIC ([1]; E. faecium 230) was 8 µg/mL (≈ 10.2 µM). It also gave an MIC ([1]; E. faecium 231) of 16 µg/mL (≈ 20.4 µM), an MIC ([1]; E. faecium 236) of 2 µg/mL (≈ 2.54 µM) and an MIC ([1]; E. faecium 238) of 16 µg/mL (≈ 20.4 µM). The MIC ([1]; E. faecium 240) was greater than 16 µg/mL, the MIC ([1]; E. faecium 248) was greater than 16 µg/mL and the MIC50 ([1]; Enterococcus) was 8 µg/mL (≈ 10.2 µM). The MIC90 ([1]; Enterococcus) was greater than 16 µg/mL, the MIC [1, 2] was 4 µg/mL (≈ 5.09 µM) and the MIC (S. haemolyticus; strain S. haemolyticus 243) was 0.06 µg/mL (≈ 0.0763 µM). For the same compound, the MIC (S. haemolyticus; strain S. haemolyticus 276) was 0.12 µg/mL (≈ 0.153 µM), the MIC (S. haemolyticus; strain S. haemolyticus 955) was 0.12 µg/mL (≈ 0.153 µM) and the MIC (S. haemolyticus; strain S. haemolyticus 982) was 0.06 µg/mL (≈ 0.0763 µM).

Work on `COC1/C=C/O[C@@]2(C)Oc3c(C)c(O)c4c(O)c(c5c(c4c3C2=O)NC2C=C(C)C=CN52)NC(=O)/C(C)=C\C=C\C(C)C(O)C(C)C(O)C(C)C(O)C1C` (stereo partly drawn) [25-desacetyl rifaximin] yielded an MIC ([1]; ATCC E. faecalis 29212) of 16 µg/mL (≈ 21.5 µM), an MIC ([1]; E. faecalis 181) greater than 16 µg/mL and an MIC ([1]; E. faecalis 186) of 4 µg/mL (≈ 5.36 µM). The MIC ([1]; E. faecalis 187) was 4 µg/mL (≈ 5.36 µM), the MIC ([1]; E. faecalis 193) was 4 µg/mL (≈ 5.36 µM) and the MIC ([1]; E. faecalis 194) was greater than 16 µg/mL. The MIC ([1]; E. faecalis 200) was greater than 16 µg/mL, the MIC ([1]; E. faecalis 204) was 4 µg/mL (≈ 5.36 µM) and the MIC ([1]; E. faecalis 205) was greater than 16 µg/mL. It also gave an MIC ([1]; E. faecalis 210) of 4 µg/mL (≈ 5.36 µM), an MIC ([1]; E. faecalis 227) greater than 16 µg/mL and an MIC ([1]; E. faecalis 228) of 4 µg/mL (≈ 5.36 µM). The MIC ([1]; E. faecalis 232) was 4 µg/mL (≈ 5.36 µM), the MIC ([1]; E. faecalis 235) was greater than 16 µg/mL and the MIC ([1]; E. faecalis 237) was 4 µg/mL (≈ 5.36 µM). It also gave an MIC ([1]; E. faecalis 239) greater than 16 µg/mL, an MIC ([1]; E. faecalis 242) greater than 16 µg/mL and an MIC ([1]; E. faecalis 243) greater than 16 µg/mL. For the same compound, the MIC ([1]; E. faecalis 245) was greater than 16 µg/mL, the MIC ([1]; E. faecalis 249) was 4 µg/mL (≈ 5.36 µM) and the MIC ([1]; E. faecalis 250) was greater than 16 µg/mL. The MIC ([1]; E. faecalis 251) was greater than 16 µg/mL, the MIC ([1]; E. faecalis 255) was 4 µg/mL (≈ 5.36 µM) and the MIC ([1]; E. faecium 8) was 4 µg/mL (≈ 5.36 µM). The MIC ([1]; E. faecium 13) was 4 µg/mL (≈ 5.36 µM), the MIC ([1]; E. faecium 174) was greater than 16 µg/mL and the MIC ([1]; E. faecium 185) was greater than 16 µg/mL. The MIC ([1]; E. faecium 188) was greater than 16 µg/mL, the MIC ([1]; E. faecium 189) was 8 µg/mL (≈ 10.7 µM) and the MIC ([1]; E. faecium 190) was greater than 16 µg/mL. The MIC ([1]; E. faecium 191) was greater than 16 µg/mL, the MIC ([1]; E. faecium 192) was 8 µg/mL (≈ 10.7 µM) and the MIC ([1]; E. faecium 198) was greater than 16 µg/mL. It also gave an MIC ([1]; E. faecium 199) greater than 16 µg/mL, an MIC ([1]; E. faecium 201) greater than 16 µg/mL and an MIC ([1]; E. faecium 203) of 8 µg/mL (≈ 10.7 µM). For the same compound, the MIC ([1]; E. faecium 207) was greater than 16 µg/mL, the MIC ([1]; E. faecium 208) was 4 µg/mL (≈ 5.36 µM) and the MIC ([1]; E. faecium 209) was greater than 16 µg/mL. The MIC ([1]; E. faecium 212) was greater than 16 µg/mL, the MIC ([1]; E. faecium 215) was greater than 16 µg/mL and the MIC ([1]; E. faecium 217) was 4 µg/mL (≈ 5.36 µM). For the same compound, the MIC ([1]; E. faecium 221) was greater than 16 µg/mL, the MIC ([1]; E. faecium 222) was greater than 16 µg/mL and the MIC ([1]; E. faecium 223) was greater than 16 µg/mL. It also gave an MIC ([1]; E. faecium 225) greater than 16 µg/mL, an MIC ([1]; E. faecium 229) of 8 µg/mL (≈ 10.7 µM) and an MIC ([1]; E. faecium 230) of 4 µg/mL (≈ 5.36 µM). For the same compound, the MIC ([1]; E. faecium 231) was greater than 16 µg/mL, the MIC ([1]; E. faecium 236) was 4 µg/mL (≈ 5.36 µM) and the MIC ([1]; E. faecium 238) was greater than 16 µg/mL. The MIC ([1]; E. faecium 240) was greater than 16 µg/mL, the MIC ([1]; E. faecium 248) was greater than 16 µg/mL and the MIC50 ([1]; Enterococcus) was greater than 16 µg/mL. The MIC90 ([1]; Enterococcus) was greater than 16 µg/mL, the MIC [1, 2] was greater than 16 µg/mL and the MIC (S. haemolyticus; strain S. haemolyticus 243) was 0.5 µg/mL (≈ 0.67 µM). For the same compound, the MIC (S. haemolyticus; strain S. haemolyticus 276) was 1 µg/mL (≈ 1.34 µM), the MIC (S. haemolyticus; strain S. haemolyticus 955) was 1 µg/mL (≈ 1.34 µM) and the MIC (S. haemolyticus; strain S. haemolyticus 982) was 0.5 µg/mL (≈ 0.67 µM).
